Each block holds one compound with its values, some of them ahead of it.
Experiments:
cathepsin B GFPspark = molecular target: T1, cathepsin B GFPspark (Homo sapiens, UniProt P07858); test: AbRGT FRET imaging / acceptor photobleaching, cathepsin B GFPspark in HEK-293 cells; type: cell-based; conditions: HEK-293, inhibitor 50 μM 1 h before probe 1 labelling, STS 4 h
T1 construct: GFPspark (C); host or cells: HEK-293
Procedure: FIG. 20 depicts confocal images of HEK-293 cells in GFP, FRET and Rh channel Cathepsin B GFPspark transfected HEK-293 cells were treated with STS (1 μM) for 4 h and labelled (a) (i) with or (a) (iv) without probe 1. Cells were pre-treated with (a) (ii) Z-VAD-FMK (50 μM) or (a) (iii) E-64 (50 μM) inhibitor 1 h before the probe 1 labelling. (b) Quantification of the change in GFPS fluorescence intensity after rhodamine photobleaching in both unbleached control region and rhodamine bleached region (ROI), using acceptor photo-bleaching method. Error bar represents the s.e.m for n=10 cells (*P<0.00001). Scale bar, 10 μm. a.u., arbitrary units.
(§1) Plasmids and transient transfection: GFPspark tagged plasmids; caspase-3 GFPspark tag (Cat: HG10050-ACG), caspase-7 GFPspark tag (HG10049-ACG), caspase-8 GFPspark (HG10078-ACG), caspase-9 GFPspark (HG11151-ACG) and cathepsin B GFPspark (HG10483-ACG) were procured from Sino Biological. For transfection, cells were seeded in a 6-well plate at a density of 0.4 million cells/well. At 60-70% confluency, cells were transiently transfected for 24 h at 37° C. with 1 μg of the GFPspark tagged plasmid DNA construct mixed with 5 μL of Lipofectamine 2000 (Invitrogen) according to the manufacturer's instructions. 24 h post-transfection, cells were visualized under the GFP filter for GFPspark expression under fluorescence microscope at 10× magnification.
(§2) Labelling of active caspases in apoptotic cells with FABP: After 24 h of transfection, cells were treated with STS (1 μM) drug or TRAIL (1 μg/ml) for apoptotic induction and incubated for 2, 4, 6 and 8 h at 37° C. in a humidified atmosphere of 5% CO2/95% air. Cells were gently scraped off from the surface at the end of apoptotic induction and centrifuged at 3000 rpm for 5 min. The cell pellet was resuspended in 300 μL of fresh DMEM containing 1 μM of probe for probe 2 and incubated for additional 2 h at 37° C. in a humidified atmosphere of 5% CO2. Cells were again centrifuged at 3000 rpm for 5 mins, and the supernatant was decanted. Cells were washed with 1×PBS, thrice finally resuspended in 20 μL of 1×PBS. The cell suspension was put on a slide, and a coverslip was placed over it. It was left for air drying. Slides were then imaged for GFP, FRET and rhodamine fluorescence signals under confocal microscopy.
Inhibitor assay: Cells were pre-treated with 50 μM of Z-VAD-FMK or Q-VD-OPh or E-64 inhibitor 1 h before probe 1 labelling and incubated for 1 h at 37° C. in a humidified atmosphere of 5% CO2. Cells were gently scraped off from the surface at the end of inhibitor treatment and centrifuged at 3000 rpm for 5 min Cells were then labelled with the probe 1 as described in the previous section.
Fluorescence imaging studies, FRET procedure: Images were collected on Zeiss LSM710 confocal microscope with 25 mW argon laser using Zen10 software. The laser was tuned to lines at 488 nm (excitation laser for GFPspark) and 561 nm (excitation laser for rhodamine) Cells were examined with a 40× 1.3 NA Zeiss oil immersion objective and 2.4× zoom. Images were collected in the three channels; GFP channel, argon laser tuned at 488 nm with 2% laser intensity and fluorescence emission was collected in emission range of 490-550 nm; rhodamine channel, argon laser tuned to 561 nm laser with 2% laser intensity and fluorescence emission was collected in range 550-650 nm and FRET channel with excitation laser of GFPSPARK channel and emission range of rhodamine channel. […]

caspase-3/7 = test: Substrate-based reporter assay, CFP-DEVDR-YFP cleavage, live cell FRET
Procedure: FIGS. 8A and 8B depict the time course of cleavage for CFP-DEVDR-YFP plasmid. Time is relative to the first frame taken after 8 h of STS treatment. […] The percentage rise in the CFP/YFP intensity ratio was 47%. Rise in CFP/YFP intensity ratio is an indirect measure of caspase-3/7 activation.
To rule out that the obtained FRET signal in [FIG. 2b (i)] is not because of random physical interaction between GFPspark and rhodamine dye, MCF-7 cells were transfected with a plasmid encoding for enhanced green fluorescent protein (EGFP). EGFP transfected MCF-7 cells were treated with STS (1 μM) for 4 h, labelled with the probe 1. […] In-gel fluorescence assay was also performed to validate the multiple off-targets labelling of probe 1 which has also been shown in the previous reports. […] The calculated FRET efficiency for (n=15 cells) is 35±1%. […] Caspase-3 activation was also monitored using probe 2 as fABP which is different from probe 1 in terms of peptide recognition sequence; DEVD in exchange for VAD as DEVD peptide sequence is more specific for caspases as compared to VAD. Probe 2 yielded a similar pattern of fluorescence signal in GFPspark, FRET and Rh channel as that of probe 1 [FIG. 7(a)]. The calculated FRET efficiency was 35% [FIG. 7(b)]. […] Acceptor photo-bleaching method was done to confirm the FRET signal, and the calculated FRET efficiency was 32±2% [FIG. 10 (a & b)].

[1] = system: cleaved caspase-3 p17 fragment; test: Western blot of cleaved caspase-3 p17 fragment in HeLa cells; type: cell-based; conditions: STS 1 μM, after 12 h, 18 and 24 h
Procedure: FIG. 9 depicts a western blot analysis of cleaved caspase-3 p17 fragment after 18 and 24 h of STS (1 μM) treatment in HeLa cells. Lysate loading was done in triplicates. Double headed arrow representing 3 lanes with the same sample.
To rule out that the obtained FRET signal in [FIG. 2b (i)] is not because of random physical interaction between GFPspark and rhodamine dye, MCF-7 cells were transfected with a plasmid encoding for enhanced green fluorescent protein (EGFP). EGFP transfected MCF-7 cells were treated with STS (1 μM) for 4 h, labelled with the probe 1. […] In-gel fluorescence assay was also performed to validate the multiple off-targets labelling of probe 1 which has also been shown in the previous reports. […] The calculated FRET efficiency for (n=15 cells) is 35±1%. […] Caspase-3 activation was also monitored using probe 2 as fABP which is different from probe 1 in terms of peptide recognition sequence; DEVD in exchange for VAD as DEVD peptide sequence is more specific for caspases as compared to VAD. Probe 2 yielded a similar pattern of fluorescence signal in GFPspark, FRET and Rh channel as that of probe 1 [FIG. 7(a)]. The calculated FRET efficiency was 35% [FIG. 7(b)]. […] To confirm the reported results, the cleaved caspase-3 p17 fragment in immunoblotting was also detected by using active caspase-3 p17 antibody after […] of STS (1 μM) treatment [FIG. 9]. […]

caspase-3 GFPspark = molecular target: T2, caspase-3 GFPspark (Homo sapiens, UniProt P42574); test: AbRGT FRET imaging / acceptor photobleaching, caspase-3 GFPspark in MCF-7 cells; type: cell-based; set-up: host or cells: MCF-7, HeLa, HEK-293; conditions: MCF-7, STS 1 μM 4 h
T2 sequence (P42574 29-175 limits assumed): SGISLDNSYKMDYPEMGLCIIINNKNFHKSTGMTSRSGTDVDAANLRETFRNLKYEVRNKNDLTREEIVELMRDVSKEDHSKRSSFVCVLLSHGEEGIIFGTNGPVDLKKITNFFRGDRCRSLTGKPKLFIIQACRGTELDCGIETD
T2 sequence (P42574 176-277 limits assumed): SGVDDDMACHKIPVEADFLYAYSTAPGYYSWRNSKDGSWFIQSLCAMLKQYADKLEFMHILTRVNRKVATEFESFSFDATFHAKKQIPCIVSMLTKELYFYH
Procedure: FIG. 2 depicts (a) a schematic representation of AbRGT in determining the specific activation of caspase-3 GFPspark tagged enzyme by FRET effect utilizing Rh-VAD-FMK (probe 1). (b) The fluorescence signal was collected in GFP, FRET and Rhodamine (Rh) channels. MCF-7 cells transfected with caspase-3 GFPspark treated with (i) 1 μM STS for 4 h or (ii) 1 μg/ml TRAIL for 5 h and then labelled with probe 1. (iii) Un-transfected MCF-7 cells were treated with 1 μM STS for 4 h and then labelled with the probe 1. MCF-7 cells transfected with enhanced green fluorescent protein (EGFP) plasmid treated (iv) with 1 μM STS or (v) without STS for 4 h and then labelled with probe 1, scale bar, […]. (c) FRET validation between GFPspark and rhodamine fluorophore using the acceptor photobleaching method. Images for GFP and rhodamine fluorescence signals were collected in GFP and FRET channels pre- and post-bleaching of rhodamine signals. (d) Quantification of change in GFP fluorescence intensity after rhodamine photo-bleaching in both unbleached control region and rhodamine bleached region, region of interest (ROI), area under the white square. Error bar represents the s.e.m for n=15 cells (*P<0.00001). Scale bar, 10 μm. a.u., arbitrary units.
FIGS. 6A and 6B depict time dependent activation of caspase-3 GFPspark in MCF-7 cells upon STS (1 μM) induction. MCF-7 cells transfected with 2 μg of caspase-3 GFPspark plasmid and treated with 1 μM of STS for 2, 6, and 8 h. Cells were then labelled with the probe 1 for an additional 2 h. […] FRET validation between GFPspark and rhodamine fluorophore using the acceptor photobleaching method for the MCF-7 cells with STS induction for 2, 6 and 8 h. I=intensity (a.u.), arbitrary units. The calculated FRET efficiency for 2, 6 and 8 h are 38, 43, and 36% respectively.
FIGS. 7A and 7B depict applying AbRGT for specific detection of active caspase-3 GFPspark using the Rh-DEVD-FMK (probe 2). Caspase-3 GFPspark (2 μg) overexpressing MCF-7 cells were treated with 1 μM of STS for 4 h and labelled with the probe 2 (1 μM). […] The rise in GFPspark intensity after rhodamine photobleaching in the background is insignificant as compared to the ROI, i.e., 68 a.u., with a calculated FRET efficiency of 35%.
FIG. 12 depicts confocal images of MCF-7 cells in GFP, FRET and Rh channel. Caspase-3 GFPspark transfected MCF-7 cells were treated with STS for 4 h and labelled (a) with or (b) without probe 1. Cells were pre-treated with (c) Z-VAD-FMK (50 μM) and (d) Q-VD-OPh (50 μM) pan-caspase inhibitors 3 h before the probe labelling.
as §1
as §2, with “Cells were washed with 1×PBS, thrice finally resuspended in 20 μL of 1×PBS. The cell suspension was put on a slide, and a coverslip was placed over it. It was left for air drying. Slides were then imaged for GFP, FRET and rhodamine fluorescence signals under confocal microscopy.” left out

- effect of inhibitor on FRET signal (cathepsin B GFPspark): abolished
Compound: CC(C)C[C@H](NC(=O)[C@H]1O[C@@H]1C(=O)O)C(=O)NCCCCN=C(N)N [E-64]
- signal in Rh channel in presence of inhibitor (cathepsin B GFPspark): sharp, intense punctate labelling was observed

Compound: CN[C@@H]1C[C@H]2O[C@@](C)([C@@H]1OC)n1c3ccccc3c3c4c(c5c6ccccc6n2c5c31)C(=O)NC4 [STS, staurosporine]
- percentage rise in the CFP/YFP intensity ratio (caspase-3/7; CFP-DEVDR-YFP plasmid, from 8 h of STS treatment): 47%
- time of caspase-3/7 activation after treatment (caspase-3/7; STS 1 μM, live cell imaging): 10 to 12 h
- cleaved caspase-3 p17 fragment in immunoblotting [1]: detected

- rise in GFP intensity after rhodamine photobleaching in ROI (caspase-3 GFPspark; probe 1 μM): 68 a.u.
- calculated FRET efficiency (caspase-3 GFPspark; probe 1 μM 2 h, acceptor photobleaching): 35%
Compound: Rh-DEVD-FMK [probe 2]
